From patent US5457106A, “Pyridine derivatives, their production and use” (Takeda Chemical Industries, Ltd., priority 1991, dated 1995) come the findings set out here.

pIC50: −log10 of the molar value. Where a name gives a salt, the structure may show the parent alone. Read-outs that look alike come from different tables or passages of the source.

Assay [1] has as its system Mouse phenylquinone writhing. Nature of the assay: Mouse phenylquinone writhing inhibitory activity. Conditions: Mus musculus, po, 20 min, orally, read-out: Inhibitory percentage (phenylquinone writhing). It counts as in vivo, mouse (Slc: ICR). In outline:
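Male ICR mice (4 weeks, 17–24 g) dosed orally with compound suspended in 5% gum arabic. After 30 min, 0.02% phenylquinone (0.1 ml/10 g) given i.p.; writhing and stretching responses counted over 20 min.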
A general note: An intraperitoneal irritant provokes the stretching counted in writhing tests.

Assay [2] has as its target T1, 5-Lipoxygenase (Rattus norvegicus, UniProt P12527).
T1 construct: rat basophilic leukemia cell suspension; endogenous in cells
T1 sequence (P12527 1-673): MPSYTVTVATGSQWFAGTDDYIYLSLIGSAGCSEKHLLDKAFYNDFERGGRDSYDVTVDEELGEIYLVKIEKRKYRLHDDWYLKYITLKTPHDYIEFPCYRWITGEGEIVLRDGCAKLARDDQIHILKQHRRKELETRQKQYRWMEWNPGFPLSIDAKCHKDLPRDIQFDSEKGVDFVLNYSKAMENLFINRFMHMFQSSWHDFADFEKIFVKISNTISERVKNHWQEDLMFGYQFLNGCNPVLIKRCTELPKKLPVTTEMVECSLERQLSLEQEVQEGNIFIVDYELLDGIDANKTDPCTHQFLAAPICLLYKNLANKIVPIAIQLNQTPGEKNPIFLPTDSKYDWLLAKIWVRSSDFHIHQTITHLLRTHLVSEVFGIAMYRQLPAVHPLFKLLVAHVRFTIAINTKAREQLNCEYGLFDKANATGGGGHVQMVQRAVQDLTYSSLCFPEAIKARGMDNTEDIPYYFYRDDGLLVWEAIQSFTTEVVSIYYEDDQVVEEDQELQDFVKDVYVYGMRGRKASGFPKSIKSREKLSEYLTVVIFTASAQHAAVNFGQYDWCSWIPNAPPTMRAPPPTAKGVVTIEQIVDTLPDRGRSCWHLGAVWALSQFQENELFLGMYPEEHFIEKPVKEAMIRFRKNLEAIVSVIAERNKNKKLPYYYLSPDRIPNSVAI
Nature of the assay: 5-Lipoxygenase inhibitory activity in rat basophilic leukemia cells. It counts as cell-based. As for the experimental part:
5-Lipoxygenase Inhibitory Activity […] Then, 0.1 ml of mast cell medium containing 50 μg of arachidonic acid and 1 μg of calcium ionophore (A-23187) were added and the mixture was allowed to stand at 37° C. for 15 minutes. Ethanol (1 ml) was added thereto and the mixture was shaken well, and filtered (Membrane filter, 0.45 μm). […] As a control, the measurement was carried out according to the same manner except that 0.01 ml of the solvent used for dissolving the test compound was used in place of the test compound. The inhibitory percentage (%) was calculated from the following equation to obtain IC50.

Assay [3] deals with T2, cyclooxygenase (Rattus norvegicus, UniProt Q63921).
T2 construct: from tissue; host or cells: platelets in platelet-rich plasma from rat abdominal aorta blood (Jcl:wistar, male)
T2 sequence (Q63921 27-602): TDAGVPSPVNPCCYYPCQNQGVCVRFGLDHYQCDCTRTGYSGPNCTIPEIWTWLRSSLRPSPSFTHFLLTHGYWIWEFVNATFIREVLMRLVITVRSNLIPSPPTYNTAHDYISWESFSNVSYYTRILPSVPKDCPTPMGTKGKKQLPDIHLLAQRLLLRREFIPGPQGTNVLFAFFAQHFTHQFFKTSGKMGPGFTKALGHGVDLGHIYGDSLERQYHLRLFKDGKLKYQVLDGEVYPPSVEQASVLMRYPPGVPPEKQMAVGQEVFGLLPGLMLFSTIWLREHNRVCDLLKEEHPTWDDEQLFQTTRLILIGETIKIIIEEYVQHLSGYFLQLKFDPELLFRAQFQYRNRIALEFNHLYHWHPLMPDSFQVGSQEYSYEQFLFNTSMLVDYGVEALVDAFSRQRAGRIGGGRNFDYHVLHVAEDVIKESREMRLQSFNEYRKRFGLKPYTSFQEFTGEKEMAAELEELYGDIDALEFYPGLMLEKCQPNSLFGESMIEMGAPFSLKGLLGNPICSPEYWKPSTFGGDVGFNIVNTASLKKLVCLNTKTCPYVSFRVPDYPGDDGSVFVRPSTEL
Briefly: Cyclooxygenase inhibitory activity (HHT formation from arachidonic acid in rat platelet-rich plasma). It counts as cell-based, rat (Jcl:wistar).

Assay [4] relates to brewer's yeast induced pyrexia. Nature of the assay: Antipyretic activity (brewer's yeast induced pyrexia). It counts as in vivo, rat (DS line). Conditions: 50 mg/kg, orally; for Antipyretic activity, .increment. °C.: at peak time. As for the experimental part:
Antipyretic Activity Six male DS line rats, 7 weeks old, weighing 200 to 240 g (Nihon Clea) per one group were used. According to the method of Winder et al. (J. Pharmac. Exp. Ther. 138: 405 (1963)), a suspension of 15% brewer's yeast (Sigma) in physiological saline (1 ml/100 g, b.w.) was injected subcutaneously at 16 hours before measurement of the body temperature to induce pyrexia. After injection of yeast, only water was provided, and each rat was bred separately in a five duplicate cage. At 16, 17 and 18 hours after yeast injection, the rectal temperature was measured by a thermistor thermometer (Takara Kogyo K.K.), and this was taken as the basal body temperature. […] Animals having the body temperature of not lower than 38.5° C. at 18 hours after yeast injection were selected, and a test compound was administered orally (1 ml/100 g, b.w.). As a control, only the solvent was provided. Upon administration, the body temperature of the control group and that of the test compound-administered group were adjusted to the same temperature. The rectal temperature was measured every hour till five hours after administration.

Assay [5] deals with Rat carrageenin pedal edema. Briefly: Rat carrageenin pedal edema inhibitory activity. It counts as in vivo, rat (Jcl: SD). The conditions noted are these: Rattus norvegicus, po, 3 h, 50 mg/kg, orally, 3 hours after carrageenin; read-out: Inhibitory percentage (carrageenin pedal edema). As for the experimental part:
Rat Carrageenin Pedal Edema Inhibitory Activity A Jcl: SD male rat (6 weeks old, weight 160-220 g) was used. After the mesurement of the volume of the dexter hind limb foot pad, a test compound suspended in 5% gum arabic solution was administered orally. Immediately after the administration, water was further administered orally so that the total administration volume of liquid became 5 ml/rat. After one hour, 0.05 ml of 1% carrageenin suspension in physiological saline was injected subcutaneously in the foot pad to induce edema [Winter, […]. and Nuss, G. W.: Proc. Soc. exp. […] Three hours after injection of carrageenin, the volume of the dexter limb was measured, and the edema volume was calculated by the difference between the volume after injection and the volume prior to injection.

For assay [6], the system named is ART (antigen-responding T-cell). Nature of the assay: In vitro ART (antigen-responding T-cell) proliferation test. It is filed as cell-based, Lewis rat. The conditions noted are these: Rattus norvegicus, T-cell, read-out: % Inhibition of ART growth.
Setting [7] is: 5-HETE, read-out: 5-Lipoxygenase inhibitory activity, 5-HETE IC50.
[8] abbreviates: LTB4, read-out: 5-Lipoxygenase inhibitory activity, LTB4 IC50.

For orientation: pIC50 means the IC50 on a negative log10 scale, so that one unit is a factor of ten. For the compound `CCCCCCCCCC(=O)NCCCSc1ccncc1` [Example 1], the inhibition in vivo at 100 mg/kg in assay [1] (100 mg/kg) was found to be 61%. For the same compound, the pIC50 is 4.77 in assay [2] (setting [7]), 4.79 in assay [2] (setting [8]) and 5.80 in assay [3].

On to `CCCCCCCCCC(=O)NCCCSc1ccccn1` [Example 3, 2-[3-(caprylamino)propylthio]pyridine], for which the pIC50 in assay [2] (setting [7]) was 4.65; in assay [2] (setting [8]), 4.76.

Turning to `O=C1c2ccccc2C(=O)N1CCSc1ccccn1` [Example 4, 2-(2-phthalimidoethylthio)pyridine], the pIC50 in assay [2] (setting [7]) is 4.76; in assay [2] (setting [8]), 4.93.

As to `CCCCCCCCCCCC(=O)NCCCSc1ccncc1` [Example 17, 4-[3-(lauroylamino)propylthio]pyridine], the pIC50 is 4.76 in assay [2] (setting [7]), 4.84 in assay [2] (setting [8]) and 5.82 in assay [3].

For `CCCCCCCC/C=C\CCCCCCCC(=O)NCCCSc1ccncc1` [Example 21, 4-[3-(oleoylamino)propylthio]pyridine], the values for the pIC50 in assay [2] (setting [7]) and in assay [2] (setting [8]) were 4.67 and 4.79, respectively.

`O=C(NCCCSc1ccncc1)c1ccccn1` [Example 42, 4-[3-(2-picolynoylamino)propylthio]pyridine]: in assay [4], the “Antipyretic activity, peak time” value was 1 h and the “Antipyretic activity, .increment. °C.” value is -0.80 °C. The inhibition in vivo at 50 mg/kg in assay [1] was found to be 51%. Further, the inhibition in vivo at 50 mg/kg in assay [5] worked out at 34%. The compound further showed a pIC50 in assay [3] of 4.88.

For `O=C(NCCCSc1ccncc1)c1cccs1` [Example 46, 4-[3-(2-thenoylamino)propylthio]pyridine], in assay [4], the “Antipyretic activity, peak time” value is reported as 4 h and the “Antipyretic activity, .increment. °C.” value was -4.08 °C. Also, the inhibition in vivo at 50 mg/kg in assay [1] stood at 66%. Further, the inhibition in vivo at 50 mg/kg in assay [5] was 39%. The negative logarithm of the IC50 (pIC50) in assay [3] is 5.10.

As for `O=C(NCCCSc1ccncc1)c1ccsc1` [Example 54, 4-[3-(3-thiophenecarbonylamino)propylthio]pyridine], in assay [4], the “Antipyretic activity, peak time” value was found to be 5 h and the “Antipyretic activity, .increment. °C.” value is -3.50 °C. Also, the inhibition in vivo at 50 mg/kg in assay [1] amounted to 58%. In addition, the inhibition in vivo at 50 mg/kg in assay [5] was determined as 45%. For the same compound, the pIC50 in assay [3] was 5.05.

Consider `O=C(NCCCSc1ccncc1)c1cc2ccccc2s1` [Example 57, 4-[3-(thianaphtene-2-carbonylamino)propylthio]pyridine], for which, in assay [4], the “Antipyretic activity, peak time” value is 4 h and the “Antipyretic activity, .increment. °C.” value was -1.28 °C. For the same compound, the inhibition in vivo at 50 mg/kg in assay [1] stood at 71%. Further, the inhibition in vivo at 50 mg/kg in assay [5] was found to be 35%. The same compound had a pIC50 in assay [3] of 5.44.

One may read the inhibition as the change of the read-out against control, counted positive when it falls. For the compound `O=C(c1ccccc1)N(CCCSc1ccncc1)Cc1ccccc1` [Example 77, 4-[3-(N-benzyl-N-benzoylamino)propylthio]pyridine hydrochloride], the inhibition in vivo at 50 mg/kg in assay [1] stood at 62%. In addition, the inhibition at 1 µM in assay [6] stood at 28%. Besides, the inhibition at 10 µM in assay [6] is 85%. The pIC50 is 5.46 in assay [2] (setting [7]) and 5.49 in assay [2] (setting [8]).

Consider `CCCCCCCCCCCCN(CCCSc1ccncc1)C(=O)C(F)(F)F` [Example 94, 4-[3-(N-dodecyl-N-trifluoroacetylamino)propylthio]pyridine], for which, in assay [6], the inhibition at 1 µM came out at 33% and the inhibition at 10 µM came out at 70%. In addition, the pIC50 in assay [2] (setting [7]) was 5.62. Moreover, in assay [2] (setting [8]), the pIC50 is 5.70.

On to `O=C1c2ccc([N+](=O)[O-])cc2C(=O)N1CSc1ccncc1` [Example 95, 4-[(4-nitrophthalimido)methylthio]pyridine], for which, in assay [6], the inhibition at 1 µM was found to be 20% and the inhibition at 10 µM came to 32%. For the same compound, the pIC50 in assay [2] (setting [7]) is 7.36. For the same compound, in assay [2] (setting [8]), the pIC50 was 7.48.

For the compound `O=C1c2ccccc2CN1CCCCSc1ccncc1` [Example 109, 4-[4-(isoindolin-1-on-2-yl)butylthio]pyridine], the inhibition in vivo at 50 mg/kg is 89% in assay [1] and 25% in assay [5]. Besides, in assay [6], the inhibition at 1 µM was -11%. In addition, the inhibition at 10 µM in assay [6] was -33%. In addition, the values for the pIC50 in assay [2] (setting [7]), in assay [2] (setting [8]) and in assay [3] were 5.85, 5.92 and 5.21, respectively.

Turning to `O=C(NCCCCSc1ccncc1)c1cc2ccccc2s1` [Example 128, 4-[4-(thianaphthene-2-carbonylamino)butylthio]pyridine], the pIC50 in assay [2] (setting [7]) was 5.21; in assay [2] (setting [8]), 5.27.

On to `O=C(c1cc2ccccc2s1)N1CCC(Sc2ccncc2)CC1` [Example 133, 4-[4-(thianaphthene-2-carbonyl)piperidylthio]pyridine], for which the inhibition in vivo at 50 mg/kg in assay [5] came out at 27%. For the same compound, the values for the pIC50 in assay [2] (setting [7]) and in assay [2] (setting [8]) were 5.34 and 5.37, respectively.

With `O=c1c2ccccc2n(Cc2ccccc2)c(=O)n1CCCCSc1ccncc1` [Example 149, 3-[4-(4-pyridylthio)butyl]-1-benzylquinazolin-2,4-(1H,3H)-dione], in assay [6], the inhibition at 1 µM was -10% and the inhibition at 10 µM worked out at 19%. In addition, the pIC50 in assay [2] (setting [7]) was 5.64. Further, the pIC50 in assay [2] (setting [8]) is 5.66.

For `O=C1SC(=Cc2ccccc2)C(=O)N1CCSc1ccncc1` [Example 155, 4-[2-(5-benzylidene-2,4-thiazolidinedione)ethylthio]pyridine], in assay [6], the inhibition at 1 µM is 4% and the inhibition at 10 µM was 78%. Moreover, the pIC50 in assay [2] (setting [7]) was 5.42. Moreover, in assay [2] (setting [8]), the pIC50 was 5.43.
